Assay results from patent publication EP0979823B1, “NOVEL AMIDE COMPOUNDS AND DRUGS CONTAINING THE SAME” (Kowa Company Ltd., priority 1997, dated 1999).
Where two headings read alike, the source gives them in different places.

Tests used:
J774 cells = assay: ACAT inhibitory activity (anti-foamation activity) in J774 cells; format: cell-based; settings: for IC50: J774 cells, 10 µg/ml 25-OH cholesterol, 18 hours, cholesterol ester = TC minus FC per protein, read-out: Enzyme (J774) IC50; for IC50 (HepG2) / IC50 (J774): ratio HepG2 / J774
Procedure: (§1) J774 cells or HepG2 cells were spread on a 24-well plate. The cells were incubated in a 5% CO2 incubator at 37°C for 24 hours using DMEM in the case of the J774 cells and a MEM culture solution in the case of the HepG2 cells (both containing 10% fetal calf serum).
(§2) The medium was removed, and the residue was washed twice with PBS, then extracted with 1.5 ml of a hexane:isopropanol (3:2) mixture, and concentrated to dryness. The extract was dissolved in 0.2 ml of isopropanol containing 10% Triton X-100. Total cholesterol (TC) and free cholesterol (FC) were measured using Cholesterol E Test Wako (supplied by Wako Pure Chemical Industries, Ltd.) and Free Cholesterol E Test Wako (supplied by Wako Pure Chemical Industries, Ltd.).
(§3) The cell extract residue was solubilized in 0.25 ml of 2N NaOH at 37°C for 30 minutes, and the protein amount was measured using BCA Protein Assay Reagent (Pierce).
(§4) The amount of cholesterol based on the protein was calculated from the difference between TC and FC, and an IC50 value was obtained from the calculation in contrast with the control.

HepG2 cells = assay: ACAT inhibitory activity (anti-foamation activity) in HepG2 cells; format: cell-based; settings: 10 µg/ml 25-OH cholesterol, 18 hours, cholesterol ester = TC minus FC per protein, read-out: Enzyme (HepG2) IC50
Procedure: as §1, §2, §3, §4

[1] = molecular target: ACAT enzyme from the blood vessel wall (Oryctolagus cuniculus, UniProt G1SUQ0); assay: ACAT inhibitory activity, microsomal enzyme from the blood vessel wall (breast aorta); format: biochemical, rabbit; settings: for IC50 (B‡) / IC50 (A‡): ratio small intestine / blood vessel wall
ACAT enzyme from the blood vessel wall, sequence (G1SUQ0 entry or part of it): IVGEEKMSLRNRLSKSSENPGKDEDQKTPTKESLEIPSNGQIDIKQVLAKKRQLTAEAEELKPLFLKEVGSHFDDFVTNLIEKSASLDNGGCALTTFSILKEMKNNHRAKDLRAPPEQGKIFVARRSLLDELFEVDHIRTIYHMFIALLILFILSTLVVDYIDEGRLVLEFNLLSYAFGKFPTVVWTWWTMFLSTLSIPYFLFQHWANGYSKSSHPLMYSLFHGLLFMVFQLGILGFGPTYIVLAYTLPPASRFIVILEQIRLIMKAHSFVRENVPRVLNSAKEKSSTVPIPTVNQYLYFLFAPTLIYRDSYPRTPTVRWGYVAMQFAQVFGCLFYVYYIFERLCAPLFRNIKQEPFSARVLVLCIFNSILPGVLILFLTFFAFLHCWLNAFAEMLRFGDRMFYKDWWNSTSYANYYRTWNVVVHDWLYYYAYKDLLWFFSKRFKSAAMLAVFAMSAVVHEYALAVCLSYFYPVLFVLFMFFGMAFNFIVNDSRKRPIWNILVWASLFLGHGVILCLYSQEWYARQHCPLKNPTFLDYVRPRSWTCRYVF
Procedure: A microsome was prepared from the breast aorta of a rabbit which had been fed with 1% cholesterol food for 8 weeks in a usual manner, and suspended in a 0.15 M phosphate buffer solution (pH 7.4) to form an enzyme solution. An enzyme solution derived from the small intestine was prepared from the small intestine of a rabbit that had eaten a normal food.
To this solution were added 10 µl of the enzyme solution, and the mixture was reacted at 37°C for 5 minutes (for 3 minutes in the case of the small intestine). Then, 3 ml of a chloroform/methanol (2/1) mixture and 0.5 ml of 0.04 N hydrochloric acid were added thereto to stop the reaction. The lipid was then extracted. The solvent layer was concentrated to dryness, and dissolved in hexane. The solution was spotted on a TLC plate (supplied by Merck Co.). The elution was conducted with a hexane:ether:acetic acid (75:25:1) mixture.
The radioactivity of the resulting cholesterol ester fraction was measured using BAS 2000 (supplied by Fuji Photo Film Co., Ltd.). An IC50 value was obtained from the calculation in contrast with a control containing only DMSO.

Compound | IC50 (J774 cells; Mus musculus) [nM] | IC50 (HepG2) / IC50 (J774) (J774 cells) | IC50 (HepG2 cells; Homo sapiens) [nM] | IC50 (J774 cells) [nM] | IC50 (HepG2 cells) [nM] | IC50 ([1]; A‡: the blood vessel wall, microsome from breast aorta of rabbit fed 1% cholesterol food for 8 weeks, 14C-Oleoyl-CoA 40 µM, 37°C, 5 minutes) [nM] | IC50 (B‡) / IC50 (A‡) [1]
Cc1cc(SC(C)C)c(NC(=O)CCCCCCSc2nc3cccc(C(F)(F)F)c3o2)c(SC(C)C)n1 [Compound No. 1292, 7-(7-trifluoromethylbenzoxazol-2-ylthio)-N-[2,4-bis(isopropylthio)-6-methyl-3-pyridyl] heptanamide] |  | 11.1 |  | 2.7 | 30 |  | 
CC(C)c1cccc(C(C)C)c1NC(=O)C(C)(C)CCCOc1ccc2c(c1)C=C(c1nccn1C)C(CCc1ccc(F)cc1)O2 (centres unmarked) [Control 1, 5-[2-(2-(4-fluorophenyl)ethyl)-3-(1-methyl-1H-imidazol-2--yl)-2H-1-benzopyran-6-yl]oxy-2,2-dimethyl-N-(2,6-diisopropylphenyl)pentanamide, reference compound] | 560 | 9.5 | 5300 |  |  | 450 | 1.9
CCCCCCCCCN(CC(C)(C)C)C(=O)N[C@H]1CCCC[C@@H]1OC(=O)CCNC(=O)C1OC(C)(C)OCC1(C)C (stereo partly drawn) [Control 3, N-(2,2,5,5-tetramethyl-1,3-dioxan-4-ylcarbonyl)-β-alanine 2 (S)-[N'-(2,2-dimethylpropyl)-N'-nonylureido]-1(S)-cyclohexyl ester, reference compound] | 320 |  | 1300 |  |  |  | 
CCCCCCCN(CCCCCSc1nc(-c2ccccc2)c(-c2ccccc2)[nH]1)c1nc2ccccc2o1 [Control 4, [5-(4,5-diphenyl-1H-imidazol-2-ylthio)pentyl]-N-heptyl-2-benzoxazolamie, reference compound] | 120 | 6.3 | 750 |  |  |  | 1.4
CC(C)c1cccc(C(C)C)c1NC(=O)CCCCCSc1nc2ccccc2o1 [Control 5, 6-(benzoxazol-2-ylthio)-N-(2,6-diisopropylphenyl)hexanamide, reference compound] | 1900 | 0.8 | 1600 |  |  |  | 
Cc1cc(SC(C)C)c(NC(=O)CCCCCCCCSc2nc3cccc(C(F)(F)F)c3o2)c(SC(C)C)n1 [compound 1294, 9-(7-trifluoromethylbenzoxazol-2-ylthio)-N-[2,4-bis(isopropylthio)-6-methyl-3-pyridyl] nonanamide] |  | 0.6 |  | 4.2 | 2.4 |  | 

Continued by falling IC50 (J774 cells; Mus musculus), values first:

IC50 (J774 cells; Mus musculus) [nM] | IC50 (HepG2) / IC50 (J774) (J774 cells) | IC50 (HepG2 cells; Homo sapiens) [nM] | IC50 (J774 cells) [nM] | IC50 (HepG2 cells) [nM] | IC50 ([1]; A‡: the blood vessel wall, microsome from breast aorta of rabbit fed 1% cholesterol food for 8 weeks, 14C-Oleoyl-CoA 40 µM, 37°C, 5 minutes) [nM] | IC50 (B‡) / IC50 (A‡) [1] | Compound
120 | 21.7 | 2600 |  |  |  |  | CCSc1cc(C)nc(SCC)c1NC(=O)CCCCCSc1nc2ccccc2o1 [Compound No. 815, 6-(benzoxazol-2-ylthio)-N-[2,4-bis(ethylthio)-6-methyl-3-pyridyl]hexanamide]
62 | 1.0 | 63 |  |  |  |  | CCSc1cc(C)nc(SCC)c1NC(=O)CCCCCCCCSc1nc2ccccc2o1 [Compound No. 818, 9-(benzoxazol-2-ylthio)-N-[2.4-bis(ethylthio)-6-methyl-3-pyridyl]nonanamide]
57 | 94.7 | 5400 |  |  |  |  | CCSc1cc(C)nc(SCC)c1NC(=O)CSc1nc2ccccc2[nH]1 [Compound No. 831, 2-(benzimidazol-2-ylthio)-N-[2,4-bis(ethylthio)-6-methyl-3-pyridyl]acetamide]
50 | 7.0 | 350 |  |  |  |  | CSc1cc(C)nc(SC)c1NC(=O)CCCCCSc1nc2ccccc2s1 [Compound No. 795, 6-(benzothiazol-2-ylthio)-N-[2,4-bis(methylthio)-6-methyl-3-pyridyl]hexanamide]
50 | 36.0 | 1800 |  |  |  |  | CCSc1cc(C)nc(SCC)c1NC(=O)CSc1nc2ccccc2o1 [Compound No. 811, 2-(benzoxazol-2-ylthio)-N-[2,4-bis(ethylthio)-6-methyl-3-pyridyl]acetamide]
4.1 | 1.1 | 4.4 |  |  |  |  | CSc1cc(C)nc(SC)c1NC(=O)CCCCCCCSc1nc2cccc(C(F)(F)F)c2o1 [Compound No. 1253, 8-(7-trifluoromethylbenzoxazol-2-ylthio)-N-[2,4-bis(methylthio)-6-methyl-3-pyridyl]octanamide]
3.6 | 8.1 | 29 |  |  |  |  | CSc1cc(C)nc(SC)c1NC(=O)CCCCCCCSc1nc2ccccc2s1 [Compound No. 797, 8-(benzthiazol-2-ylthio)-N-[2,4-bis(methylthio)-6-methyl-3-pyridyl)octanamide]
3.2 | 1.9 | 6.2 |  |  |  |  | CCSc1cc(C)nc(SCC)c1NC(=O)CCCCCCSc1nc2c(C)c(Cl)cc(C(C)C)c2o1 [Compound No. 1282, 7-(5-chloro-7-isopropyl-4-methylbenzoxazol-2-ylthio)-N-[2,4-bis(ethylthio)-6-methyl-3-pyridyl]heptanamide]
2.1 | 7.1 | 15 |  |  |  |  | Cc1cc(SC(C)C)c(NC(=O)CCCCCCSc2nc3c(C)c(Cl)cc(C(C)C)c3o2)c(SC(C)C)n1 [Compound No. 1302, 7-(5-chloro-7-isopropyl-4-methylbenzoxazol-2-ylthio)-N-[2,4-bis(isopropylthio)-6-methyl-3-pyridyl]heptanamide]
